Measurements taken from patent US20100172854A1, “ANTIBACTERIAL FORMULATIONS” (priority 2007, published 2010).
Converted amounts (≈) assume the structure as drawn.

Experiments:
[1] = test system: S. aureus CPHL GISA HO41340156; experiment: MBC assay; assay type: cell-based, Staphylococcus aureus; conditions: resistance phenotype Van/Tec (intermediate)
Experimental: (§1) The staphylococci were cultured and maintained on Mueller-Hinton Medium (agar and broth) at pH 7.2; cultures were incubated aerobically at 37° C. for 19-20 hours.
(§2) This assay, normally carried out after an MIC assay, determines the minimum concentration of a compound that is lethal to the micro-organism being tested.
(§3) These samples were then individually sub-cultured on antibiotic-free agar medium, under the incubation conditions described above. Following incubation they were examined visually for microbial growth.

S. aureus ATCC 12600-U = experiment: MBC assay; assay type: cell-based, Staphylococcus aureus
Experimental: as §1, §2, §3

S. aureus CPHL EMRSA 16 = experiment: MBC assay; assay type: cell-based, Staphylococcus aureus; conditions: resistance phenotype Met/β-lactams
Experimental: as §1, §2, §3

S. aureus ATCC 12602 = experiment: MBC assay; assay type: cell-based, Staphylococcus aureus
Experimental: as §1, §2, §3

S. aureus ATCC 25923 = experiment: MBC assay; assay type: cell-based, Staphylococcus aureus
Experimental: as §1, §2, §3

S. aureus CPHL EMRSA 17 = experiment: MBC assay; assay type: cell-based, Staphylococcus aureus; conditions: resistance phenotype Met/β-lactams
Experimental: as §1, §2, §3

S. aureus ATCC 12606 = experiment: MBC assay; assay type: cell-based, Staphylococcus aureus
Experimental: as §1, §2, §3

S. aureus NCTC 12981 = experiment: MBC assay; assay type: cell-based, Staphylococcus aureus
Experimental: as §1, §2, §3

S. aureus ATCC 12601 = experiment: MBC assay; assay type: cell-based, Staphylococcus aureus
Experimental: as §1, §2, §3

S. aureus ATCC 12605 = experiment: MBC assay; assay type: cell-based, Staphylococcus aureus
Experimental: as §1, §2, §3

S. aureus NCTC 12493 = experiment: MBC assay; assay type: cell-based, Staphylococcus aureus
Experimental: as §1, §2, §3

S. aureus CPHL VISA Mu50 = experiment: MBC assay; assay type: cell-based, Staphylococcus aureus; conditions: resistance phenotype Van (intermediate)
Experimental: as §1, §2, §3

S. aureus CPHL EMRSA 15 = experiment: MBC assay; assay type: cell-based, Staphylococcus aureus; conditions: resistance phenotype Met/β-lactams
Experimental: as §1, §2, §3

P. granulosum PPR-006 = experiment: Agar dilution MIC assay; assay type: cell-based, Propionibacterium granulosum; conditions: Propionibacterium, PPR006
Experimental: (§4) The propionibacteria were cultured and maintained on Wilkins-Chalgren Anaerobe Medium (agar and broth) at pH 6.0; all cultures were incubated anaerobically at 37° C. for 72 hours.
(§5) This is a standard international method for quantitatively assessing the antimicrobial activity of a compound in a solid medium. The test compound was prepared to 40× the highest concentration required (e.g. 10 mg/ml for a final concentration of 250 μg/ml) and a series of doubling dilutions were performed in a suitable solvent. A set amount of these antimicrobial stock solutions was then added to molten agar medium (ca. 55° C.), mixed thoroughly, poured into sterile Petri dishes and allowed to cool/set. The culture medium was as described above.
(§6) A Multipoint™ Inoculator (AQS Manufacturing Ltd, UK) was used to inoculate the plates by spotting the inocula onto the surface of the agar, delivering approximately 1 to 2 μl per spot (yielding 10^5 CFU (colony forming units) per spot).
The plate(s) were then incubated under the conditions described above, following which they were examined visually for signs of bacterial growth. The MIC value was ascertained when there was a marked reduction in, or total loss of, growth on the test plate at the lowest concentration as compared to that of the growth on the control plate. […]

P. acnes PRP-026 = experiment: Agar dilution MIC assay; assay type: cell-based, Propionibacterium acnes; conditions: Cutibacterium acnes, PRP026, resistance phenotype MLS
Experimental: as §4, §5, §6
(§7) The plate(s) were then incubated under the conditions described above, following which they were examined visually for signs of bacterial growth. The MIC value was ascertained when there was a marked reduction in, or total loss of, growth on the test plate at the lowest concentration as compared to that of the growth on the control plate.
(§8) The assays were conducted in triplicate and included a positive control (culture medium, diluting solvent and inoculum).

P. acnes PRP-008 = experiment: Agar dilution MIC assay; assay type: cell-based, Propionibacterium acnes; conditions: Cutibacterium acnes, PRP008, resistance phenotype Clin
Experimental: as §4, §5, §6, §7, §8

P. acnes PPR-007 = experiment: Agar dilution MIC assay; assay type: cell-based, Propionibacterium acnes; conditions: Cutibacterium acnes, PPR007
Experimental: as §4, §5, §6, §7, §8

P. acnes PRP-017 = experiment: Agar dilution MIC assay; assay type: cell-based, Propionibacterium acnes; conditions: Cutibacterium acnes, PRP017, resistance phenotype MLS
Experimental: as §4, §5, §6, §7, §8

P. acnes PRP-004 = experiment: Agar dilution MIC assay; assay type: cell-based, Propionibacterium acnes; conditions: Cutibacterium acnes, PRP004, resistance phenotype Tet
Experimental: as §4, §5, §6, §7, §8

P. acnes PRP-003 = experiment: Agar dilution MIC assay; assay type: cell-based, Propionibacterium acnes; conditions: Cutibacterium acnes, PRP003, resistance phenotype Tet
Experimental: as §4, §5, §6, §7, §8

P. acnes PRP-023 = experiment: Agar dilution MIC assay; assay type: cell-based, Propionibacterium acnes; conditions: Cutibacterium acnes, PRP023, resistance phenotype MLSK
Experimental: as §4, §5, §6, §7, §8

P. acnes PRP-068 = experiment: Agar dilution MIC assay; assay type: cell-based, Propionibacterium acnes; conditions: Cutibacterium acnes, PRP068, resistance phenotype Ery
Experimental: as §4, §5, §6, §7, §8

P. acnes PRP-059 = experiment: Agar dilution MIC assay; assay type: cell-based, Propionibacterium acnes; conditions: Cutibacterium acnes, PRP059, resistance phenotype MLS
Experimental: as §4, §5, §6, §7, §8

P. acnes PRP-102 = experiment: Agar dilution MIC assay; assay type: cell-based, Propionibacterium acnes; conditions: Cutibacterium acnes, PRP102, resistance phenotype Tet/MLS
Experimental: as §4, §5, §6, §7, §8

P. acnes PRP-053 = experiment: Agar dilution MIC assay; assay type: cell-based, Propionibacterium acnes; conditions: Cutibacterium acnes, PRP053, resistance phenotype Tet/MLS
Experimental: as §4, §5, §6, §7, §8

`Cc1cc(Cc2cc(C)cc(C(C)(C)C)c2O)c(O)c(C(C)(C)C)c1` [AO 2246, 2,2′-methylene-bis(4-methyl-6-tert-butylphenol)] was tested, and the MBC ([1]; Staphylococcus aureus) was 3.9 µg/mL (≈ 11.5 µM), the “MIC/MBC Ratio” value [1] was 0.5 and the “MIC/MBC Ratio” value (S. aureus ATCC 12600-U) was 0.06. The MBC (S. aureus ATCC 12600-U; Staphylococcus aureus, ATCC12600) was 15.6 µg/mL (≈ 45.8 µM), the MBC (S. aureus CPHL EMRSA 16; Staphylococcus aureus) was 7.8 µg/mL (≈ 22.9 µM) and the “MIC/MBC Ratio” value (S. aureus CPHL EMRSA 16) was 0.25. For the same compound, the “MIC/MBC Ratio” value (S. aureus ATCC 12602) was 0.5, the MBC (S. aureus ATCC 12602; Staphylococcus aureus, ATCC12602) was 3.9 µg/mL (≈ 11.5 µM) and the “MIC/MBC Ratio” value (S. aureus ATCC 25923) was 1. The MBC (S. aureus ATCC 25923; Staphylococcus aureus, ATCC25923) was 7.8 µg/mL (≈ 22.9 µM), the MBC (S. aureus CPHL EMRSA 17; Staphylococcus aureus) was 7.8 µg/mL (≈ 22.9 µM) and the “MIC/MBC Ratio” value (S. aureus CPHL EMRSA 17) was 0.25. The “MIC/MBC Ratio” value (S. aureus ATCC 12606) was 0.5, the MBC (S. aureus ATCC 12606; Staphylococcus aureus, ATCC12606) was 3.9 µg/mL (≈ 11.5 µM) and the “MIC/MBC Ratio” value (S. aureus NCTC 12981) was 0.25. For the same compound, the MBC (S. aureus NCTC 12981; Staphylococcus aureus, NCTC12981) was 7.8 µg/mL (≈ 22.9 µM), the “MIC/MBC Ratio” value (S. aureus ATCC 12601) was 1 and the MBC (S. aureus ATCC 12601; Staphylococcus aureus, ATCC12601) was 1.95 µg/mL (≈ 5.73 µM). The “MIC/MBC Ratio” value (S. aureus ATCC 12605) was 1, the MBC (S. aureus ATCC 12605; Staphylococcus aureus, ATCC12605) was 1.95 µg/mL (≈ 5.73 µM) and the “MIC/MBC Ratio” value (S. aureus NCTC 12493; S. aureus NCTC 12493, resistance phenotype Met) was 0.5. For the same compound, the MBC (S. aureus NCTC 12493; Staphylococcus aureus, NCTC12493) was 1.95 µg/mL (≈ 5.73 µM), the MBC (S. aureus CPHL VISA Mu50; Staphylococcus aureus) was 15.6 µg/mL (≈ 45.8 µM) and the “MIC/MBC Ratio” value (S. aureus CPHL VISA Mu50) was 0.06. The MBC (S. aureus CPHL EMRSA 15; Staphylococcus aureus) was 7.8 µg/mL (≈ 22.9 µM), the “MIC/MBC Ratio” value (S. aureus CPHL EMRSA 15) was 0.25 and the MIC (P. granulosum PPR-006) was 1.95 µg/mL (≈ 5.73 µM). It also gave an MIC (P. acnes PRP-026) of 3.9 µg/mL (≈ 11.5 µM), an MIC (P. acnes PRP-008) of 1.95 µg/mL (≈ 5.73 µM) and an MIC (P. acnes PPR-007) of 1.95 µg/mL (≈ 5.73 µM). For the same compound, the MIC (P. acnes PRP-017) was 3.9 µg/mL (≈ 11.5 µM), the MIC (P. acnes PRP-004) was 3.9 µg/mL (≈ 11.5 µM) and the MIC (P. acnes PRP-003) was 3.9 µg/mL (≈ 11.5 µM). The MIC (P. acnes PRP-023) was 3.9 µg/mL (≈ 11.5 µM), the MIC (P. acnes PRP-068) was 3.9 µg/mL (≈ 11.5 µM) and the MIC (P. acnes PRP-059) was 3.9 µg/mL (≈ 11.5 µM). It also gave an MIC (P. acnes PRP-102) of 3.9 µg/mL (≈ 11.5 µM) and an MIC (P. acnes PRP-053) of 3.9 µg/mL (≈ 11.5 µM).
